Values of other authors as cited in publication PMC11599114 (Viruses, 2024).

Tested on: RSV
Details: fusion, ref AVPdb

Sequence	IC50/EC50
AVSKVLHLEGEVNKISALLSTNKAVVSLSNGVSVLTSKVLDLDNYIDKQLLPIVNK [AVP1971]	1.68 µM
DASISQVNEKINQSLAFIRKSDELLHNVNAGKSTT [AVP0142]	8 µM
DEFDASISQVNEKINQSLAFIRKSDELLHNVNAGK [AVP0139]	12 µM
DPLVFPSDEFDASISQVNEKINQSLAFIRKSDELL [AVP0132]	8 µM
EFDASISQVNEKINQSLAFIRKSDELLHNVNAGKS [AVP0140]	13 µM
FDASISQVNEKINQSLAFIRKSDELLHNVNAGKST [AVP0143]	0.051 µM
FPSDEFDASISQVNEKINQSLAFIRKSDELLHNVN [AVP0136]	8 µM
FYDPLVFPSDEFDASISQVNEKINQSLAFIRKSDE [AVP0130]	20 µM
IINFYDPLVFPSDEFDASISQVNEKINQSLAFIRK [AVP0127]	91 µM
INFYDPLVFPSDEFDASISQVNEKINQSLAFIRKS [AVP0128]	93 µM
LVFPSDEFDASISQVNEKINQSLAFIRKSDELLHN [AVP0134]	9 µM
NFYDPLVFPSDEFDASISQVNEKINQSLAFIRKSD [AVP0129]	>100 µM
NFYDPLVFPSDEFDASISQVNEKINQSLASIRKSDELLHNVNAGK [AVP1972]	2.93 µM
PLVFPSDEFDASISQVNEKINQSLAFIRKSDELLH [AVP0133]	30 µM
PSDEFDASISQVNEKINQSLAFIRKSDELLHNVNA [AVP0137]	6 µM
SDEFDASISQVNEKINQSLAFIRKSDELLHNVNAG [AVP0138]	6 µM
VFPSDEFDASISQVNEKINQSLAFIRKSDELLHNV [AVP0135]	19 µM
YDPLVFPSDEFDASISQVNEKINQSLAFIRKSDEL [AVP0131]	6 µM

Same assay, conditions: ref DRAVP

Sequence	IC50/EC50
AKIXQSLXFIXKSDXLLHNV [DRAVPe00631]	1.16 ± 0.08 µM
EAIXQSLXFIXKSDXLLHNV [DRAVPe00632]	0.60 ± 0.02 µM
EKAXQSLXFIXKSDXLLHNV [DRAVPe00633]	1.30 ± 0.89 µM
EKIAQSLXFIRXSDXLLHXV [DRAVPe00629]	20.41 ± 2.4 µM
EKINQSLAFIRKSDELLHNV [DRAVPe00623]	>50 µM
EKINQSLXFIAXSDXLLHXV [DRAVPe00630]	175 ± 0.00 µM
EKIXASLXFIXKSDXLLHNV [DRAVPe00634]	0.28 ± 0.43 µM
EKIXQALXFIXKSDXLLHNV [DRAVPe00635]	0.66 ± 0.26 µM
EKIXQSAXFIXKSDXLLHNV [DRAVPe00636]	0.95 ± 0.53 µM
EKIXQSLXAIXKSDXLLHNV [DRAVPe00637]	1.39 ± 0.10 µM
EKIXQSLXFAXKSDXLLHNV [DRAVPe00638]	10.44 ± 2.97 µM
EKIXQSLXFIXASDXLLHNV [DRAVPe00639]	10.93 ± 13.90 µM
EKIXQSLXFIXKADXLLHNV [DRAVPe00640]	82.04 ± 1.56 µM
EKIXQSLXFIXKSAXLLHNV [DRAVPe00641]	1.10 ± 0.08 µM
EKIXQSLXFIXKSDXALHNV [DRAVPe00642]	0.88 ± 0.06 µM
EKIXQSLXFIXKSDXLLANV [DRAVPe00643]	0.52 ± 0.07 µM
EKIXQSLXFIXKSDXLLHAV [DRAVPe00644]	2.71 ± 2.93 µM
EKIXQSLXFIXKSDXLLHNA [DRAVPe00645]	0.60 ± 0.03 µM
EXINXSLXFIRXSDALLHNV [DRAVPe00646]	1.00 ± 0.03 µM
EXINXSLXFIRXSDELLHNV [DRAVPe00626]	0.59 ± 0.13 µM

Tested on: INFVA
Set-up: method as in AVPdb
Details: fusion, ref AVPdb

Sequence	EC50
AGDDQGLDKCVPNSKEK [AVP1195]	0.0037 ± 0.00035 nM
NGESSADWAKN [AVP1196]	0.225 ± 0.00116 nM

Same assay, conditions: virus entry, ref AVPdb

Sequence	IC50
AETVESCLAKPHTEN [AVP0967]	66 µM
AVASVPRARGKYWWG [AVP0965]	44 µM
DFRRLPGAFWQLRQP [AVP0966]	52 µM
FFVIFYRRKK [AVP1808]	1.48 µM
GAWYKGRARPVSAVA [AVP0963]	53 µM
GWWYKGRARAVSAVA [AVP0964]	89 µM
GWWYKGRARPVSAVA [AVP0961]	3.2 µM
